Results from ChEMBL document CHEMBL4622846, “Synthesis and cytotoxic effects of 2-thio-3,4-dihydroquinazoline derivatives as novel T-type calcium channel blockers” (Bioorg Med Chem, 2020).
Active and inactive are the calls of the source. The calls are words filed in the database; no cut-off is given here.

Experiments:
[1] = molecular target: T1, Voltage-dependent T-type calcium channel subunit alpha-1G (Homo sapiens, UniProt O43497); assay: Inhibition of human Cav3.1 expressed in tsA-201 cells at 10uM by patch clamp electrophysiology; format: cell-based
[2] = molecular target: T2, Voltage-dependent T-type calcium channel subunit alpha-1H (Homo sapiens, UniProt O95180); assay: Inhibition of human Cav3.2 expressed in tsA-201 cells at 10uM by patch clamp electrophysiology; format: cell-based
[3] = molecular target: T3, Voltage-dependent T-type calcium channel subunit alpha-1I (Homo sapiens, UniProt Q9P0X4); assay: Inhibition of human Cav3.3 expressed in tsA-201 cells at 10uM by patch clamp electrophysiology; format: cell-based
A549 = assay: Cytotoxicity against human A549 cells assessed as reduction in cell viability after 48 hrs by MTT assay; format: functional, cell-based; details: A549, 48 h
HCT-116 = assay: Cytotoxicity against human HCT116 cells assessed as reduction in cell viability after 48 hrs by MTT assay; format: functional, cell-based; details: HCT-116, 48 h
[4] = molecular target: T1, Voltage-dependent T-type calcium channel subunit alpha-1G; assay: Inhibition of human Cav3.1 expressed in tsA-201 cells by patch clamp electrophysiology; format: cell-based
[5] = molecular target: T2, Voltage-dependent T-type calcium channel subunit alpha-1H; assay: Inhibition of human Cav3.2 expressed in tsA-201 cells by patch clamp electrophysiology; format: cell-based
[6] = molecular target: T3, Voltage-dependent T-type calcium channel subunit alpha-1I; assay: Inhibition of human Cav3.3 expressed in tsA-201 cells by patch clamp electrophysiology; format: cell-based

T2 sequence (O95180 whole entry): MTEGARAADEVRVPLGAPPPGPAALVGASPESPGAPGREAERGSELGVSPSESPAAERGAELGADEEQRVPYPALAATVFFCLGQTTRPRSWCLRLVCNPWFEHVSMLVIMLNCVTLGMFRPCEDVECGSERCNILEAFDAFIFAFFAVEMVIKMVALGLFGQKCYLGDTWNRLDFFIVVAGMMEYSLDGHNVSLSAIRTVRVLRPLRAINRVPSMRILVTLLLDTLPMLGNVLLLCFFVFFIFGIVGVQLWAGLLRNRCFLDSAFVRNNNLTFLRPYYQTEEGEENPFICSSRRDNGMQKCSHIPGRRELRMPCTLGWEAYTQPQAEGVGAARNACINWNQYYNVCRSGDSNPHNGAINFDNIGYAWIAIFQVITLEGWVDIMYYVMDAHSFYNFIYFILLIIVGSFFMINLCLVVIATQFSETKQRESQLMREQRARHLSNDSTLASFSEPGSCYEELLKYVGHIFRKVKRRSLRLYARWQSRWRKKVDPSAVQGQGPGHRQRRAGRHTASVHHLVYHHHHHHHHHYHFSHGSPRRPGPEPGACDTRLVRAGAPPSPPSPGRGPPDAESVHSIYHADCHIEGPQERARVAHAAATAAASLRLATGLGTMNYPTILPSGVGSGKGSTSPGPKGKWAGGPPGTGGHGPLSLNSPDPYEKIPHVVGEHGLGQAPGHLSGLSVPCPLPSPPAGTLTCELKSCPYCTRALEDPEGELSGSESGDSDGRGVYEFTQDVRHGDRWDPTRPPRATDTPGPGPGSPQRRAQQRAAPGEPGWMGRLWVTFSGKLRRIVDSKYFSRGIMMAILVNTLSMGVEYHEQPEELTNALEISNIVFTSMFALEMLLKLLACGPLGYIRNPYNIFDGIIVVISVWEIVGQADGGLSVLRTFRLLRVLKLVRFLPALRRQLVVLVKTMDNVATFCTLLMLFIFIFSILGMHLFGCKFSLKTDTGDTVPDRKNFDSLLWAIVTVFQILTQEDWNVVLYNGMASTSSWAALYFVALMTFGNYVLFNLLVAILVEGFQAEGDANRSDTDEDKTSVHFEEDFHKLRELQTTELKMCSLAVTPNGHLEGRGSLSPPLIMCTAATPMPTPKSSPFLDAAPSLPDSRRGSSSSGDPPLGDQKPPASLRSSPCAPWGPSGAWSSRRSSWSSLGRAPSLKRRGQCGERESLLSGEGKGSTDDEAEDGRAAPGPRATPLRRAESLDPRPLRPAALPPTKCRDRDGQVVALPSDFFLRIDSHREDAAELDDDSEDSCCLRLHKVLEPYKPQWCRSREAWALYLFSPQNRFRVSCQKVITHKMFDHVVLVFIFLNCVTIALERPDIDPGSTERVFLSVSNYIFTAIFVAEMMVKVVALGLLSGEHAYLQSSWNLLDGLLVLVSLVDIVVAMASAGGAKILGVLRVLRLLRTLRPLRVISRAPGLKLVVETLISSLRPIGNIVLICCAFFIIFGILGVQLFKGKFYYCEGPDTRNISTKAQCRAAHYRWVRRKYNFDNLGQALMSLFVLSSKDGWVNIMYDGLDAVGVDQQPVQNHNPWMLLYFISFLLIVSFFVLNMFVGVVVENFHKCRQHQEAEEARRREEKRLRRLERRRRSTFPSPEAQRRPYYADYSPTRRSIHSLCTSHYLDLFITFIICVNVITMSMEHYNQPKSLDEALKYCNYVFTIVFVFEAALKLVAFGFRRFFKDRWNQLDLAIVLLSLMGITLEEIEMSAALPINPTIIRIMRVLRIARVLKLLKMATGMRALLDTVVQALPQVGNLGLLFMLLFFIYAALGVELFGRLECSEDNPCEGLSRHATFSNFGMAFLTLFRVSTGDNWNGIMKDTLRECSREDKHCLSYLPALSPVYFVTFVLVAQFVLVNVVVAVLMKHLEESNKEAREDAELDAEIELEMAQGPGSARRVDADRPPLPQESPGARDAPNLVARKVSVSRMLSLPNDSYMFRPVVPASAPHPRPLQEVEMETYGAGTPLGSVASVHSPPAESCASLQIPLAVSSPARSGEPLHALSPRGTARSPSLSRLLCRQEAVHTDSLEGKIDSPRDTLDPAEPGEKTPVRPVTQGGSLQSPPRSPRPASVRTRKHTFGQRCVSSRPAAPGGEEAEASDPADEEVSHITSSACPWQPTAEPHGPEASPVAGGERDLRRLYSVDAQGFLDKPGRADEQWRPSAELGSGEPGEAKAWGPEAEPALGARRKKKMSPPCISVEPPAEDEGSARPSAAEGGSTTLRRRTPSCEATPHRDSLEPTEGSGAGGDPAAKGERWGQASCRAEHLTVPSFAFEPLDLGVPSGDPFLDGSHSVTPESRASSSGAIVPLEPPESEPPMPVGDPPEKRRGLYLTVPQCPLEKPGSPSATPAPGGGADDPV
T3 sequence (Q9P0X4 whole entry): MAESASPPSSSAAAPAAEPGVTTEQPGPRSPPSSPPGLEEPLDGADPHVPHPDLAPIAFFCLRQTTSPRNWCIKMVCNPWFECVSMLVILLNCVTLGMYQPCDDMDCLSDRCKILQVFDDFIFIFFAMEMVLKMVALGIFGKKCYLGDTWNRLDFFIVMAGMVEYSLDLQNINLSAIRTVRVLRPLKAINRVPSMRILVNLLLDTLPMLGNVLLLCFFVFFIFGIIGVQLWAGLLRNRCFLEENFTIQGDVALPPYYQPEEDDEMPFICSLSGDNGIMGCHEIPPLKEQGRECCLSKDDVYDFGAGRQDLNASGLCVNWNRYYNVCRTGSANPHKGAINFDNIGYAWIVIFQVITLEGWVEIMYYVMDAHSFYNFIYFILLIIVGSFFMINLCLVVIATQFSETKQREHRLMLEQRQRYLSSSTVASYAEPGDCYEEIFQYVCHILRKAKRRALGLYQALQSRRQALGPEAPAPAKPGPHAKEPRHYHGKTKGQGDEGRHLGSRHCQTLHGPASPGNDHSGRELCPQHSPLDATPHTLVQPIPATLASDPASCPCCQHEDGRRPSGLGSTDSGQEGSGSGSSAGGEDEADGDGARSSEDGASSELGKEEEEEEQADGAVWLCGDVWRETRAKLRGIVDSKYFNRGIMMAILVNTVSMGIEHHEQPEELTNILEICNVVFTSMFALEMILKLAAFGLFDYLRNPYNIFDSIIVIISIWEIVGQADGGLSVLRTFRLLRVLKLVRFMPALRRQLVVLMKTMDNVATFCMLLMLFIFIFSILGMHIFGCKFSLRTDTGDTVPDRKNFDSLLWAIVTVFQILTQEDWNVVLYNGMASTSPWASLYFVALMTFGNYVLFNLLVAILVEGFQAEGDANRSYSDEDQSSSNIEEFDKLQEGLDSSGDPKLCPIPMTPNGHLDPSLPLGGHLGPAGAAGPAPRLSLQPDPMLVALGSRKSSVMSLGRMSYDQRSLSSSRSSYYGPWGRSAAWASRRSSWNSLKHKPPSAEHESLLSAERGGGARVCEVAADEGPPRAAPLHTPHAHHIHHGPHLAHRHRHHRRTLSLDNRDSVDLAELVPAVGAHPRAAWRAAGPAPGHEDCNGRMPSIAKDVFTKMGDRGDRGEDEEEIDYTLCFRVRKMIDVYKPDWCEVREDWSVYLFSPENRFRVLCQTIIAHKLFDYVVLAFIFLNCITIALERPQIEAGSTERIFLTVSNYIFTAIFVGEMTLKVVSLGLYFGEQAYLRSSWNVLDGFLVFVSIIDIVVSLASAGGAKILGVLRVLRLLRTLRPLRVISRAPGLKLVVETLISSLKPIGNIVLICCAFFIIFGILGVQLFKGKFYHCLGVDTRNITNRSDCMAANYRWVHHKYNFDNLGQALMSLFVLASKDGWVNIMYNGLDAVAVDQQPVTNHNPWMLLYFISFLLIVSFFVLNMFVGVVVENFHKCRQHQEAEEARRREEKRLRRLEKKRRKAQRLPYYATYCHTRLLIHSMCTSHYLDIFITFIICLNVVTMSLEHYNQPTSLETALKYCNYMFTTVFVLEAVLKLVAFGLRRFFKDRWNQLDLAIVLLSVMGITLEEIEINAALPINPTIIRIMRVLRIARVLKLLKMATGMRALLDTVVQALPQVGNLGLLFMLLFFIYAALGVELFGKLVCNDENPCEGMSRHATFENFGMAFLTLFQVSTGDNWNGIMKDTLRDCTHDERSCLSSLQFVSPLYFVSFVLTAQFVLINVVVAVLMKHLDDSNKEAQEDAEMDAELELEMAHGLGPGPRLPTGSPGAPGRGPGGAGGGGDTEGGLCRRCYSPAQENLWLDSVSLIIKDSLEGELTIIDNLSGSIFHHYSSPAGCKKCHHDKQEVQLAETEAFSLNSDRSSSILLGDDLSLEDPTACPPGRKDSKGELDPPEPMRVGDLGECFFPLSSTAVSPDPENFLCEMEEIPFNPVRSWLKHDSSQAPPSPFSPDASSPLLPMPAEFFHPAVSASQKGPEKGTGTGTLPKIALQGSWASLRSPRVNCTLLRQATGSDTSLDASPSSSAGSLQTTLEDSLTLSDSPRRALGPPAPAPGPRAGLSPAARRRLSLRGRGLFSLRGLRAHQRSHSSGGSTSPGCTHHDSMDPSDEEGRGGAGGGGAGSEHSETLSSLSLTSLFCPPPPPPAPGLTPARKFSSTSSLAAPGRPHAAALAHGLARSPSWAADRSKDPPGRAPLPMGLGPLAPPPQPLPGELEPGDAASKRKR

Row | inhibition [1] [%] | inhibition [2] [%] | inhibition [3] | IC50 [4] [µM] | IC50 [5] [µM] | IC50 ([6]; read-out: IC50) [µM] | IC50 [6] | SMILES | IC50 (A549) [µM] | IC50 (HCT-116) [µM]
1 | 96.2 | 84.8 | 92% | 0.4 | 2.76 | 0.96 | – | CN(C)CCCCCSC1=Nc2ccccc2C(CC(=O)NCc2ccc(F)cc2)N1c1ccc(-c2ccc(F)cc2)cc1 (stereo unspecified) | 11.3 | 9.3
2 | 97.6 | 75.6 | 66.7% | 0.25 | 4.18 | 9.06 | – | CN(C)CCCCCSC1=Nc2ccccc2C(CC(=O)NCc2ccccc2)N1c1ccc(-c2ccc(F)cc2)cc1 (stereo unspecified) | 17.6 | 9.2
3 | 76.2 | 83.9 | 85.6% | 7.77 | 2.4 | 1.76 | – | CN(C)CCCCCSC1=Nc2ccccc2C(CC(=O)NCc2ccccc2)N1c1ccc(-c2ccccc2)cc1 (stereo unspecified) | 18.1 | 9.6
4 | 31 | 83.1 | 69.3% | 27.4 | 3.14 | 6.1 | – | CN(C)CCCCCSC1=Nc2ccccc2C(CC(=O)NCc2ccc(F)cc2)N1c1ccc(-c2ccccc2)cc1 (stereo unspecified) | 5 | 6.4
5 | 83.9 | 76.6 | 35.1% | 12.6 | 4.88 | 19.8 | – | O=C(CC1c2ccccc2N=C(SCCCCCN2CCCC2)N1c1ccc(-c2ccc(F)cc2)cc1)NCc1ccc(F)cc1 (stereo unspecified) | 12.6 | 7.7
6 | 26.7 | 7 | inactive | – | 832 | – | Not Active | CN(C)CCCCCSC1=Nc2ccccc2C(CC(=O)NCc2ccc(F)cc2)N1c1ccccc1 (stereo unspecified) | 36.8 | 38.8

The next lines start with the compound.

Row | SMILES | inhibition [1] [%] | inhibition [2] [%] | inhibition [3] | IC50 [4] [µM] | IC50 [5] [µM] | IC50 ([6]; read-out: IC50) [µM] | IC50 [6] | IC50 (A549) [µM] | IC50 (HCT-116) [µM]
7 | O=C(CC1c2ccccc2N=C(SCCCCCN2CCCC2)N1c1ccc(-c2ccccc2)cc1)NCc1ccccc1 (stereo unspecified) | 93.9 | 73.1 | 92.7% | 0.66 | 6.9 | 0.81 | – | 14.9 | 5.5
8 | O=C(CC1c2ccccc2N=C(SCCCCCN2CCCC2)N1c1ccc(-c2ccccc2)cc1)NCc1ccc(F)cc1 (stereo unspecified) | 51.5 | 69 | 55.9% | 15 | 276 | 13.6 | – | 19.8 | 6.2
9 | O=C(CC1c2ccccc2N=C(SCCCCCN2CCCC2)N1c1ccccc1)NCc1ccccc1 (stereo unspecified) | 60.4 | 61.6 | 78.3% | 77 | 7.71 | 6.19 | – | 98.1 | 31.3
10 | CN(C)CCCCCN(C)C1=Nc2ccccc2C(CC(=O)NCc2ccccc2)N1c1ccc(-c2ccccc2)cc1 (stereo unspecified) | – | 89.3 | – | – | – | – | – | – | 5.6
11 | O=C(CC1c2ccccc2N=C(SCCCCCN2CCCC2)N1c1ccccc1)NCc1ccc(F)cc1 (stereo unspecified) | 60.1 | 40 | 22.1% | 13.5 | 57.4 | – | – | 89.9 | 27.1
12 | O=C(CC1c2ccccc2N=C(SCCCCCN2CCCC2)N1c1ccc(-c2ccc(F)cc2)cc1)NCc1ccccc1 (stereo unspecified) | 83.9 | 97.5 | 68.2% | 2.18 | 0.26 | 5.1 | – | 17.8 | 12.5
13 | CN(C)CCCCCSC1=Nc2ccccc2C(CC(=O)NCc2ccccc2)N1c1ccccc1 (stereo unspecified) | 46.5 | 51.8 | 76% | 18.5 | 13.8 | 3.2 | – | 138 | 38.8
